Reference: patent US12606542B2, “[(1,5-diheteroaryl-1H-1,2,4-triazol-3-yl)oxy] acetic acid derivatives as safeners for the protection of useful plants and crop plants” (BAYER AKTIENGESELLSCHAFT, priority 2020, dated 2026)

Test system: summer wheat (TRZAS; cv. Triso)
Experiment: Reduction of damage by mesosulfuron-methyl on summer wheat (greenhouse safener test, post-emergence)
Type: in vivo
Set-up: key: 0: no reduction in damage (appearance corresponding to the herbicide control); 1: slight reduction in damage; 2: distinct reduction in damage; 3: significant reduction in damage; 4: complete reduction in damage (appearance corresponding to the untreated control)
Conditions: safener 100 g/ha as WP spray at early leaf stage (BBCH10-BBCH12), then mesosulfuron-methyl 40-60 g/ha; visual assessment 9-13 days after application; crop plant TRZAS
Method: 2.1 Relative Action of Selected Compounds of the Invention Using the Example of Reduction of Damage by Mesosulfuron-Methyl on Summer Wheat (TRZAS) The seeds of the crop plants to be treated are laid out in sandy loam in plastic pots (diameter ˜4 cm), covered with soil and grown in a greenhouse under good conditions for germination and growth. The trial plants were treated at the early leaf stage (BBCH10-BBCH12). In the course of this, the inventive compounds of the general formula (I) formulated in the form of wettable powders (WP) were sprayed onto the above-ground parts of the plants as an aqueous suspension with a water application rate corresponding to 800 l/ha with addition of wetting agent (e.g. 0.2% Genapol-LRO or 0.2% Mero) in the specified dose. This was followed by the application of the herbicide. For this purpose, mesosulfuron-methyl, formulated in the form of water-dispersible granules (WG), was sprayed onto the above-ground parts of the plants in the form of an aqueous dispersion with a water application rate corresponding to 800 l/ha with addition of wetting agent (e.g. 0.2% Genapol-LRO or 1 l/ha Biopower) in a dose of 40-60 g/ha. […] 9-13 days after application, the efficacy of the test compounds was assessed visually. […]

## COC(=O)COc1nc(-c2ccc(F)cn2)n(-c2ccc(Cl)cn2)n1 [Example I.31-10, Methyl {[1-(5-chloropyridin-2-yl)-5-(5-fluoropyridin-2-yl)-1H-1,2,4-triazol-3-yl]oxy}acetate]
  Efficacy of the safener (efficacy code): 2
